In ChEMBL document CHEMBL4837181 (Eur J Med Chem, 2020):
Where a SMILES comes first, the peptide text is derived from it. [ ]: non-standard residue; d: D form. dTrp(1-Me) = Cn1cc(C[C@@H](N)C(=O)O)c2ccccc21

Assays:
[1] = Dose normalized Cmax in rat at 10 mg/kg, po measured upto 72 hrs by LC-MS/MS analysis; type: ADME, organism-based; conditions: in vivo
[2] = Chemical stability of compound in saline assessed as compound remaining at 5 uM measured after 24 hrs by LC-MS/MS analysis; type: physicochemical; conditions: read-out: Stabilty
[3] = Change in normalised AUCinfinity in rat at 10 mg/kg, po measured upto 72 hrs by LC-MS/MS analysis; type: ADME, organism-based; conditions: in vivo
[4] = Dose normalized AUC (0 to infinity) in rat at 10 mg/kg, po measured upto 72 hrs by LC-MS/MS analysis; type: ADME, organism-based; conditions: in vivo
[5] = Stability in human plasma assessed as parent compound remaining measured after 24 hrs by LC-MS/MS analysis; type: ADME, cell-free; conditions: read-out: Stabilty
[6] = Chemical stability of compound in PBS buffer assessed as compound remaining at pH 7.4 at 5 uM measured after 24 hrs by LC-MS/MS analysis; type: physicochemical; conditions: read-out: Stabilty
[7] = Chemical stability of compound in simulated gastric fluid assessed as compound remaining at 5 uM measured after 1.5 hrs by LC-MS/MS analysis; type: ADME, physicochemical; conditions: read-out: Stabilty
[8] = Chemical stability of compound in simulated gastric fluid assessed as compound remaining at 5 uM measured after 24 hrs by LC-MS/MS analysis; type: ADME, physicochemical; conditions: read-out: Stabilty
[9] = Change in normalised Cmax in rat at 10 mg/kg, po measured upto 72 hrs by LC-MS/MS analysis; type: ADME, organism-based; conditions: in vivo
[10] = Chemical stability of compound in simulated intestinal fluid assessed as compound remaining at 5 uM measured after 24 hrs by LC-MS/MS analysis; type: ADME, physicochemical; conditions: read-out: Stabilty
[11] = Chemical stability of compound in 0.1 N aqueous HCl buffer assessed as compound remaining at pH 1 at 5 uM measured after 1.5 hrs by LC-MS/MS analysis; type: physicochemical; conditions: pH 1, 1.5 h
[12] = Change in AUC (infinity) in rat at 37 umol/kg, po measured upto 72 hrs by LC-MS/MS analysis; type: ADME, organism-based; conditions: in vivo, at 37 µmol/kg
[13] = Stability in human plasma assessed as parent compound remaining measured after 6 hrs by LC-MS/MS analysis; type: ADME, cell-free; conditions: read-out: Stabilty
[14] = Chemical stability of compound in 0.1 N aqueous HCl buffer assessed as compound remaining at pH 1 at 5 uM measured after 24 hrs by LC-MS/MS analysis; type: physicochemical; conditions: pH 1, 24 h
[15] = Change in Cmax in rat at 37 umol/kg, po measured upto 72 hrs by LC-MS/MS analysis; type: ADME, organism-based; conditions: in vivo, at 37 µmol/kg
[16] = Stability in mouse plasma assessed as parent compound remaining measured after 2 hrs by LC-MS/MS analysis; type: ADME, cell-free; conditions: read-out: Stabilty
[17] = Stability in rat plasma assessed as parent compound remaining measured after 2 hrs by LC-MS/MS analysis; type: ADME, cell-free; conditions: read-out: Stabilty
[18] = Chemical stability of compound in simulated intestinal fluid assessed as compound remaining at 5 uM measured after 3 hrs by LC-MS/MS analysis; type: ADME, physicochemical; conditions: read-out: Stabilty
[19] = Chemical stability of compound in PBS buffer assessed as compound remaining at pH 7.4 at 5 uM measured after 6 hrs by LC-MS/MS analysis; type: physicochemical; conditions: read-out: Stabilty
[20] = Change in normalised Cmax in rat at 50 mg/kg, po measured upto 72 hrs by LC-MS/MS analysis; type: ADME, organism-based; conditions: in vivo
[21] = Dose normalized Cmax in rat at 50 mg/kg, po measured upto 72 hrs by LC-MS/MS analysis; type: ADME, organism-based; conditions: in vivo
[22] = Dose normalized AUC (0 to infinity) in rat at 50 mg/kg, po measured upto 72 hrs by LC-MS/MS analysis; type: ADME, organism-based; conditions: in vivo
[23] = Change in normalised AUC (infinity) in rat at 50 mg/kg, po measured upto 72 hrs by LC-MS/MS analysis; type: ADME, organism-based; conditions: in vivo

| Compound | Cmax/dose [1] [µM] | remaining at 24 h, 5 µM [2] [%] | Activity [3] [%] | AUC/dose [4] [µM·h] | remaining at 24 h [5] [%] | remaining at 24 h, 5 µM [6] [%] | remaining at 1.5 h, 5 µM [7] [%] | remaining at 24 h, 5 µM [8] [%] | Activity [9] [%] | remaining at 24 h, 5 µM [10] [%] | Stabilty [11] [%] | Activity [12] [%] | remaining at 6 h [13] [%] | Stabilty [14] [%] | Activity [15] [%] | remaining at 2 h [16] [%] | remaining at 2 h [17] [%] | remaining at 3 h, 5 µM [18] [%] | remaining at 6 h, 5 µM [19] [%] | also measured |
| --- | --- | --- | --- | --- | --- | --- | --- | --- | --- | --- | --- | --- | --- | --- | --- | --- | --- | --- | --- | --- |
| Cl.Cn1cc(C[C@@H](N)C(=O)OCC2CCNCC2)c2ccccc21 | 21.5 | 23 | 75 | 889 | 2 | 12 | 75 | 73 | 24 | 3 | 36 | -54 | 44 | 23 | -69 | 0 | 19 | 45 | 92 |  |
| Cl.Cn1cc(C[C@@H](NC(=O)CN)C(=O)O)c2ccccc21 (H-Gly-[dTrp(1-Me)]-OH) | 28 | 99 | 18 | 599 | 68 | 65 | 80 | 78 | 62 | 38 | 64 | 1 | 78 | 99 | 10 | 100 | 56 | 64 | 83 |  |
| Cl.Cn1cc(C[C@@H](N)C(=O)OCc2ccccc2)c2ccccc21 |  |  |  |  |  |  |  |  |  |  |  |  |  |  |  | 0 | 0 |  |  | Activity [20]: 4%; Cmax/dose [21]: 28 µM; AUC/dose [22]: 1028 µM·h; Activity [23]: -22% |
| CC(C)OC(=O)[C@H](N)Cc1cn(C)c2ccccc12.Cl |  |  |  |  |  |  |  |  |  |  |  |  |  |  |  | 0 | 0 |  |  | Activity [20]: 4%; Cmax/dose [21]: 28 µM; AUC/dose [22]: 1051 µM·h; Activity [23]: -21% |
| CCOC(=O)N[C@H](Cc1cn(C)c2ccccc12)C(=O)O |  |  |  |  |  |  |  |  |  |  |  |  |  |  |  | 97 | 100 |  |  | Activity [20]: -78%; Cmax/dose [21]: 6 µM; AUC/dose [22]: 229 µM·h; Activity [23]: -83% |
| CCOC(=O)[C@@H](Cc1cn(C)c2ccccc12)NC(=O)[C@@H](N)CCC(N)=O.Cl | 24.4 | 85 | 58 | 806 | 0 | 17 | 108 | 88 | 41 | 1 | 73 | -1 | 23 | 85 | 12 | 0 | 0 | 70 | 67 |  |
| Cl.Cn1cc(C[C@@H](NC(=O)[C@@H](N)CCCCN)C(=O)O)c2ccccc21 | 16.7 | 100 | 56 | 795 | 78 | 57 | 97 | 92 | -3 | 96 | 89 | -10 | 96 | 100 | 8 | 77 | 95 | 96 | 93 |  |
| CC(C)C[C@H](N)C(=O)N[C@H](Cc1cn(C)c2ccccc12)C(=O)O.Cl | 24.4 | 99 | 21 | 617 | 82 | 95 | 95 | 97 | 41 | 0 | 92 |  | 87 | 99 |  | 88 | 100 | 66 | 95 |  |
| Cl.Cn1cc(C[C@@H](N)C(=O)OCC(O)CO)c2ccccc21 (some centres not stated) | 33.3 | 99 | 17 | 595 | 11 | 29 | 62 | 58 | 92 | 10 | 37 | 21 | 33 | 99 | 28 | 0 | 0 | 34 | 50 |  |
| Cl.Cn1cc(C[C@@H](NC(=O)[C@@H](N)Cc2ccccc2)C(=O)O)c2ccccc21 | 11.9 | 92 | -16 | 425 | 75 | 92 | 79 | 80 | -31 | 0 | 96 |  | 87 | 92 |  | 66 | 19 | 91 | 89 |  |
| C[C@H](N)C(=O)N[C@H](Cc1cn(C)c2ccccc12)C(=O)O.Cl | 13.4 | 40 | -39 | 310 | 0 | 34 | 20 | 25 | -22 | 12 | 100 |  | 65 | 40 |  | 94 | 92 | 36 | 58 |  |
| CCOC(=O)[C@@H](Cc1cn(C)c2ccccc12)NC(=O)[C@@H](N)Cc1ccccc1.Cl | 7.9 | 90 | -35 | 329 | 11 | 96 | 89 | 86 | -54 | 0 | 99 |  | 68 | 90 |  | 0 | 0 | 65 | 96 |  |
| Cl.Cn1cc(C[C@@H](NC(=O)[C@@H](N)Cc2c[nH]c3ccccc23)C(=O)O)c2ccccc21 | 12 | 61 | -18 | 415 | 94 | 33 | 81 | 73 | -31 | 69 | 52 |  | 97 | 61 |  | 90 | 76 | 88 | 55 |  |
| CC(C)[C@H](N)C(=O)N[C@H](Cc1cn(C)c2ccccc12)C(=O)O.Cl | 14.2 | 99 | -33 | 338 | 47 | 44 | 55 | 50 | -18 | 76 | 98 |  | 79 | 99 |  | 57 | 9 | 78 | 91 |  |
| Cl.Cn1cc(C[C@@H](N)C(=O)OCCC2CCNCC2)c2ccccc21 | 2.4 | 46 | -78 | 110 | 4 | 22 | 90 | 90 | -86 | 8 | 74 |  | 27 | 46 |  | 0 | 0 | 62 | 91 |  |
